Measured values as given in patent US8846570B2, “Herbicidal compositions comprising 4-amino-3-chloro-5-fluoro-6-(4-chloro-2-fluoro-3-methoxyphenyl)pyridine-2-carboxylic acid or a derivative thereof and microtubule inhibiting herbicides” (Dow AgroSciences LLC, priority 2012, dated 2014).
Where two headings read alike, the source gives them in different places.

Tests used:
Assay type in all cases: in vivo
[1] = system: Xanthium strumarium L. (XANST); assay: Pre-emergence soil-applied, greenhouse: visual weed control; settings: 27 DAA
Excerpt: (§1) Seeds or nutlets of the desired test plant species were planted in a soil matrix prepared by mixing a loam soil (e.g., 32 percent silt, 23 percent clay, and 45 percent sand, with a pH of about 6.5 and an organic matter content of about 1.9 percent) and calcareous grit in an 80 to 20 ratio. The soil matrix was contained in plastic pots with a volume of 1 quart and a surface area of 83.6 square centimeters (cm^2).
(§2) Treatments consisted of the benzyl ester of 4-amino-3-chloro-5-fluoro-6-(4-chloro-2-fluoro-3-methoxy-phenyl)pyridine-2-carboxylic acid (compound A) formulated as an SC (suspension concentrate) and various herbicidal components alone and in combination. Forms of compound A were applied on an acid equivalent basis.
(§3) Treatment requirements were calculated based upon the rates being tested, the concentration of active ingredient or acid equivalent in the formulation, and a 12 mL application volume at a rate of 187 L/ha.
(§4) For treatments comprised of formulated compounds, measured amounts of compounds were placed individually in 25 mL glass vials and diluted in a volume of 1.25% (v/v) Agri-Dex® crop oil concentrate (COC) to obtain 12× stock solutions. […] Application solutions were prepared by adding an appropriate amount of each stock solution (e.g., 1 mL) and diluted to the appropriate final concentrations with the addition of 10 mL of an aqueous mixture of 1.25% (v/v) COC so that the final spray solutions contained 1.25% (v/v) COC.
(§5) For treatments comprised of formulated and technical compounds, weighed amounts of the technical materials were placed individually in 25 mL glass vials and dissolved in a volume of 97:3 (v/v) acetone/DMSO to obtain 12× stock solutions, and measured amounts of the formulated compounds were placed individually in 25 mL glass vials and diluted in a volume of 1.5% (v/v) COC or water to obtain 12× stock solutions. […] Application solutions were prepared by adding an appropriate amount of each stock solution (e.g., 1 mL) and diluted to the appropriate final concentrations with the addition of an appropriate amount of an aqueous mixture of 1.5% (v/v) COC so that the final spray solutions contained 1.25% (v/v) COC. As required, additional water and/or 97:3 (v/v) acetone/DMSO was added to individual application solutions so that the final acetone and DMSO concentrations of the application solutions being compared were 8.1% and 0.25%, respectively.
(§6) All stock solutions and applications solutions were visually inspected for compound compatibility prior to application. Spray solutions were applied to the soil with an overhead Mandel track sprayer equipped with a 8002E nozzles calibrated to deliver 187 L/ha over an application area of 0.503 m^2 at a spray height of 18 inches (46 cm) above average pot height. Control pots were sprayed in the same manner with the solvent blank.
(§7) The treated and control pots were placed in a greenhouse and top watered as needed. When required to ensure good germination and healthy plants, a fungicide treatment and/or other chemical or physical treatment was applied. The pots were maintained in a greenhouse with an approximate 14 hr photoperiod which was maintained at about 29° C. during the day and 26° C. during the night. Nutrients (Peters® Excel 15-5-15 5-Ca 2-Mg) were applied in the irrigation solution as needed and water was added on a regular basis. Supplemental lighting was provided with overhead metal halide 1000-Watt lamps as necessary. After approximately 4 weeks, the condition of the test plants as compared with that of the untreated plants was determined visually and scored on a scale of 0 to 100 percent where 0 corresponds to no injury or growth inhibition and 100 corresponds to complete kill.
(§8) Colby's equation was used to determine the herbicidal effects expected from the mixtures (Colby, S. R. 1967. Calculation of the synergistic and antagonistic response of herbicide combinations. Weeds 15:20-22.). […]

[2] = system: Ipomoea hederacea Jacq. (IPOHE); assay: Postemergence foliar-applied, direct seeded rice, greenhouse: visual weed control; settings: post-emergence, read-out: Visual Weed Control (%) Obs
Method: (§9) Seeds or nutlets of the desired test plant species were planted in a soil matrix prepared by mixing a loam or sandy loam soil (e.g., 28.6 percent silt, 18.8 percent clay, and 52.6 percent sand, with a pH of about 5.8 and an organic matter content of about 1.8 percent) and calcareous grit in an 80 to 20 ratio. The soil matrix was contained in plastic pots with a volume of 1 quart and a surface area of 83.6 cm^2. […] The plants were grown for 8-22 days in a greenhouse with an approximate 14 h photoperiod which was maintained at about 29° C. during the day and 26° C. during the night. Nutrients (Peters Excel® 15-5-15 5-Ca 2-Mg and iron chelate) were applied in the irrigation solution as needed and water was added on a regular basis. Supplemental lighting was provided with overhead metal halide 1000-Watt lamps as necessary. The plants were employed for testing when they reached the first through fourth true leaf stage.
(§10) Forms of compound A were applied on an acid equivalent basis.
as §4, with “oil concentrated” for “oil concentrate (COC)”, “(v/v) crop oil concentrate” for “(v/v) COC”, “contained 1.25+/−0.05%” for “contained 1.25%”, “(v/v) crop oil concentrate.” for “(v/v) COC.”
(§11) As required, additional water and/or 97:3 v/v acetone/DMSO was added to individual application solutions so that the final acetone and DMSO concentrations of the application solutions being compared were 8.1% and 0.25%, respectively.
(§12) All stock solutions and applications solutions were visually inspected for compound compatibility prior to application. Spray solutions were applied to the plant material with an overhead Mandel track sprayer equipped with a 8002E nozzles calibrated to deliver 187 L/ha over an application area of 0.503 m^2 at a spray height of 18 to 20 inches (46 to 50 cm) above average plant canopy height. Control plants were sprayed in the same manner with the solvent blank.
(§13) The treated plants and control plants were placed in a greenhouse as described above and watered by sub-irrigation to prevent wash-off of the test compounds. After approximately 3 weeks, the condition of the test plants as compared with that of the untreated plants was determined visually and scored on a scale of 0 to 100 percent where 0 corresponds to no injury or growth inhibition and 100 corresponds to complete kill.
(§14) Colby's equation was used to determine the herbicidal effects expected from the mixtures (Colby, S. R. 1967. Calculation of the synergistic and antagonistic response of herbicide combinations. Weeds 15:20-22.).
(§15) The following equation was used to calculate the expected activity of mixtures containing two active ingredients, A and B: Expected=A+B−(A×B/100)

[3] = system: Sesbania exaltata (Raf.) Cory/Rydb. Ex Hill (SEBEX); assay: Pre-emergence soil-applied, greenhouse: visual weed control
Excerpt: as §1, §2, §3, §4, §5, §6, §7, §8

[4] = system: Echinochloa crus-galli (L.) P. Beauv. (ECHCG); assay: as above
Excerpt: as §1, §2, §3, §4, §5, §6, §7, §8

[5] = system: Echinochloa colonum (L.) Link (ECHCO); assay: as above
Excerpt: as §1, §2, §3, §4, §5, §6, §7, §8

[6] = system: Brachiaria platyphylla (Groseb.) Nash or Urochloa platyphylla (Nash) R.D. Webster (BRAPP); assay: as above
Excerpt: as §1, §2, §3, §4, §5, §6, §7, §8

[7] = system: Setaria faberi Herrm. (SETFA); assay: as above
Excerpt: as §1, §2, §3, §4, §5, §6, §7, §8

[8] = system: Ipomoea hederacea (L.) Jacq. (IPOHE); assay: as above; settings: Propyzamide 1120 g ai/ha alone; soil-applied pre-emergence; 33 DAA
Excerpt: as §1, §10, §4, §5, §6
as §7, with “When required to ensure good germination and healthy plants, a fungicide treatment and/or other chemical or physical treatment was applied.” left out
as §14, §15

[9] = system: Leptochloa chinensis (L.) Nees (LEFCH); assay: In-water applied, transplanted paddy rice, greenhouse: visual weed control; settings: 21 DAA
Method: Weed seeds or nutlets of the desired test plant species were planted in puddled soil (mud) prepared by mixing a shredded, non-sterilized mineral soil (50.5 percent silt, 25.5 percent clay, and 24 percent sand, with a pH of about 7.6 and an organic matter content of about 2.9 percent) and water at a 1:1 volumetric ratio. The prepared mud was dispensed in 365 mL aliquots into 16-ounce (oz.) non-perforated plastic pots with a surface area of 86.59 square centimeters (cm^2) leaving a headspace of 3 centimeters (cm) in each pot. Mud was allowed to dry overnight prior to planting or transplanting. Rice seeds were planted in Sun Gro MetroMix® 306 planting mixture, which typically has a pH of 6.0 to 6.8 and an organic matter content of about 30 percent, in plastic plug trays. Seedlings at the second or third leaf stage of growth were transplanted into 860 mL of mud contained in 32-oz. non-perforated plastic pots with a surface area of 86.59 cm^2 4 days prior to herbicide application. The paddy was created by filling the headspace of the pots with 2.5 to 3 cm of water. When required to ensure good germination and healthy plants, a fungicide treatment and/or other chemical or physical treatment was applied. The plants were grown for 4-22 days in a greenhouse with an approximate 14 h photoperiod which was maintained at about 29° C. during the day and 26° C. during the night. Nutrients were added as Osmocote® (19:6:12, N:P:K+minor nutrients) at 2 g per 16.-oz. pot and 4 g per 32-oz. pot. Water was added on a regular basis to maintain the paddy flood, and supplemental lighting was provided with overhead metal halide 1000-Watt lamps as necessary. The plants were employed for testing when they reached the first through fourth true leaf stage.
Treatments consisted of the acid or esters of 4-amino-3-chloro-5-fluoro-6-(4-chloro-2-fluoro-3-methoxy-phenyl)pyridine-2-carboxylic acid (compound A) each formulated as an SC and various herbicidal components alone and in combination. Forms of compound A were applied on an acid equivalent basis.
Treatment requirements for each compound or herbicidal component were calculated based upon the rates being tested, the concentration of active ingredient or acid equivalent in the formulation, an application volume of 2 mL per component per pot, and an application area of 86.59 cm^2 per pot.
For formulated compounds, a measured amount was placed in an individual 100 or 200 mL glass vial and was dissolved in a volume of 1.25% (v/v) Agri-Dex® crop oil concentrate to obtain application solutions.
For technical grade compounds, a weighed amount was placed in an individual 100 to 200 mL glass vial and was dissolved in a volume of acetone to obtain concentrated stock solutions. […] The concentrated stock solutions obtained were diluted with an equivalent volume of an aqueous mixture containing 2.5% (v/v) crop oil concentrate so that the final application solutions contained 1.25% (v/v) crop oil concentrate.
Applications were made by injecting, with a pipetter, appropriate amounts of the application solutions into the aqueous layer of the paddy. Control plants were treated in the same manner with the solvent blank. Applications were made so that all treated plant material received the same concentrations of acetone and crop oil concentrate.
as §13, with “water was added as needed” for “watered by sub-irrigation”, “maintain a paddy flood.” for “prevent wash-off of the test compounds.”, “weeks” for “weeks,”
as §8

[10] = system: Echinochloa crusgalli (L.) Beauv. (ECHCG); assay: Postemergence foliar-applied, direct seeded rice, greenhouse: visual weed control; settings: 21 DAA
Method: as §9, §10
as §4, with “oil concentrated” for “oil concentrate (COC)”, “(v/v) crop oil concentrate” for “(v/v) COC”, “contained 1.25+/−0.05%” for “contained 1.25%”, “(v/v) crop oil concentrate.” for “(v/v) COC.”
as §11, §12, §13, §14, §15

Structure (SMILES): COC(=O)c1c(C(F)F)nc(C(F)(F)F)c(C2=NCCS2)c1CC(C)C [Thiazopyr, methyl 2-(difluoromethyl)-5-(4,5-dihydro-2-thiazolyl)-4-(2-methylpropyl)-6-(trifluoromethyl)-3-pyridinecarboxylate]
- Visual Weed Control (%) Obs ([1]; 280 g ai/ha): 15%
- Visual Weed Control (%) Obs ([1]; 560 g ai/ha): 10%
- pest or weed control at 280 g/ha ([2]; 480 h): 40%

Structure (SMILES): C#CC(C)(C)NC(=O)c1cc(Cl)cc(Cl)c1 [Propyzamide]
- Visual Weed Control (%) - 33 DAA SEBEX Obs ([3]; Propyzamide 280 g ai/ha alone): 20%
- Visual Weed Control (%) - 33 DAA SEBEX Obs ([3]; Propyzamide 560 g ai/ha alone): 13%
- Visual Weed Control (%) - 33 DAA SEBEX Obs ([3]; Propyzamide 1120 g ai/ha alone): 37%
- Visual Weed Control (%) - 33 DAA ECHCG Obs ([4]; Propyzamide 560 g ai/ha alone): 35%
- Visual Weed Control (%) - 33 DAA ECHCG Obs ([4]; Propyzamide 1120 g ai/ha alone): 53%
- Visual Weed Control (%) - 33 DAA ECHCO Obs ([5]; Propyzamide 280 g ai/ha alone): 0%
- Visual Weed Control (%) - 33 DAA ECHCO Obs ([5]; Propyzamide 560 g ai/ha alone): 23%
- Visual Weed Control (%) - 33 DAA ECHCO Obs ([5]; Propyzamide 1120 g ai/ha alone): 80%
- Visual Weed Control (%) - 33 DAA BRAPP Obs ([6]; Propyzamide 280 g ai/ha alone): 20%
- Visual Weed Control (%) - 33 DAA BRAPP Obs ([6]; Propyzamide 560 g ai/ha alone): 37%
- Visual Weed Control (%) - 33 DAA SETFA Obs ([7]; Propyzamide 280 g ai/ha alone): 0%
- Visual Weed Control (%) - 33 DAA SETFA Obs ([7]; Propyzamide 560 g ai/ha alone): 68%
- Visual Weed Control (%) - 33 DAA SETFA Obs ([7]; Propyzamide 1120 g ai/ha alone): 93%
- pest or weed control at 70 g/ha ([2]; 528 h, 22 DAA, 70 g ai/ha): 0%
- pest or weed control at 140 g/ha ([2]; 528 h, 22 DAA, 140 g ai/ha): 0%
- pest or weed control at 280 g/ha ([2]; 528 h, 22 DAA, 280 g ai/ha): 0%
- Visual Weed Control (%) - 33 DAA IPOHE Obs [8]: 35%

Structure (SMILES): CCCCOC(=O)c1nc(-c2ccc(Cl)c(OC)c2F)c(F)c(N)c1Cl [Compound A n-Butyl Ester]
- Visual Weed Control (%) Obs ([9]; 35 g ae/ha): 8%
- Visual Weed Control (%) Obs ([9]; 70 g ae/ha): 38%
- pest or weed control at 17.5 g/ha ([2]; 504 h): 40%
- Visual Weed Control (%) Obs ([10]; 17.5 g ae/ha): 45%
- Visual Weed Control (%) Obs ([10]; 35 g ae/ha): 70%
